Experimental data: article PMC3657749 (Journal of medicinal chemistry, 2013)
Each block holds one compound with its values, some of them ahead of it.

How the values were obtained:
[1] = tested on: LNCaP (androgen dependent prostate cancer); assay: Cell viability assay; format: cell-based
[2] = molecular target: HDAC 1 (Homo sapiens, UniProt Q13547); assay: HDAC inhibition by SAMDI mass spectrometry, HDAC 1; format: biochemical; details: maximum tested concentration 10 μM
[3] = tested on: T-cell leukemia cell line Jurkat; assay: Cell viability assay; format: cell-based
[4] = tested on: DU-145 (androgen independent prostate cancer); assay: Cell viability assay; format: cell-based; details: for DU-145 anti-proliferative activity (result in words): highest tested concentration 20 μM
[5] = molecular target: T1, HDAC 8 (Homo sapiens, UniProt Q9BY41); assay: HDAC inhibition by SAMDI mass spectrometry, HDAC 8; format: biochemical; details: for HDAC 8 inhibition (result in words): SAMDI, maximum tested concentration 10 μM; for HDAC 8 inhibition relative to 7c: fold more active than 7c
T1 sequence (Q9BY41 1-377): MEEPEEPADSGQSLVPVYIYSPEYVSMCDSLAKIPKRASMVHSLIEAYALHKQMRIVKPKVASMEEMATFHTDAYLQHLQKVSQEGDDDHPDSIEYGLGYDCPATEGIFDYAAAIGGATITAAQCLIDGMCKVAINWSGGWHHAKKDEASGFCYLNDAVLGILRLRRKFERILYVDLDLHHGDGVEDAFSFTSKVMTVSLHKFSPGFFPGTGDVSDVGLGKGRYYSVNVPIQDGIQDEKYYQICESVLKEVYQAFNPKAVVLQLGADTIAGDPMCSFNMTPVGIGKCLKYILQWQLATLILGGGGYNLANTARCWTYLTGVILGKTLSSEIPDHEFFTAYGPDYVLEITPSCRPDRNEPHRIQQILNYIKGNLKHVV

[6] = molecular target: T2, HDAC 6 (Homo sapiens, UniProt Q9UBN7); assay: HDAC inhibition by SAMDI mass spectrometry, HDAC 6; format: biochemical; details: maximum tested concentration 10 μM
T2 sequence (Q9UBN7 1-1215): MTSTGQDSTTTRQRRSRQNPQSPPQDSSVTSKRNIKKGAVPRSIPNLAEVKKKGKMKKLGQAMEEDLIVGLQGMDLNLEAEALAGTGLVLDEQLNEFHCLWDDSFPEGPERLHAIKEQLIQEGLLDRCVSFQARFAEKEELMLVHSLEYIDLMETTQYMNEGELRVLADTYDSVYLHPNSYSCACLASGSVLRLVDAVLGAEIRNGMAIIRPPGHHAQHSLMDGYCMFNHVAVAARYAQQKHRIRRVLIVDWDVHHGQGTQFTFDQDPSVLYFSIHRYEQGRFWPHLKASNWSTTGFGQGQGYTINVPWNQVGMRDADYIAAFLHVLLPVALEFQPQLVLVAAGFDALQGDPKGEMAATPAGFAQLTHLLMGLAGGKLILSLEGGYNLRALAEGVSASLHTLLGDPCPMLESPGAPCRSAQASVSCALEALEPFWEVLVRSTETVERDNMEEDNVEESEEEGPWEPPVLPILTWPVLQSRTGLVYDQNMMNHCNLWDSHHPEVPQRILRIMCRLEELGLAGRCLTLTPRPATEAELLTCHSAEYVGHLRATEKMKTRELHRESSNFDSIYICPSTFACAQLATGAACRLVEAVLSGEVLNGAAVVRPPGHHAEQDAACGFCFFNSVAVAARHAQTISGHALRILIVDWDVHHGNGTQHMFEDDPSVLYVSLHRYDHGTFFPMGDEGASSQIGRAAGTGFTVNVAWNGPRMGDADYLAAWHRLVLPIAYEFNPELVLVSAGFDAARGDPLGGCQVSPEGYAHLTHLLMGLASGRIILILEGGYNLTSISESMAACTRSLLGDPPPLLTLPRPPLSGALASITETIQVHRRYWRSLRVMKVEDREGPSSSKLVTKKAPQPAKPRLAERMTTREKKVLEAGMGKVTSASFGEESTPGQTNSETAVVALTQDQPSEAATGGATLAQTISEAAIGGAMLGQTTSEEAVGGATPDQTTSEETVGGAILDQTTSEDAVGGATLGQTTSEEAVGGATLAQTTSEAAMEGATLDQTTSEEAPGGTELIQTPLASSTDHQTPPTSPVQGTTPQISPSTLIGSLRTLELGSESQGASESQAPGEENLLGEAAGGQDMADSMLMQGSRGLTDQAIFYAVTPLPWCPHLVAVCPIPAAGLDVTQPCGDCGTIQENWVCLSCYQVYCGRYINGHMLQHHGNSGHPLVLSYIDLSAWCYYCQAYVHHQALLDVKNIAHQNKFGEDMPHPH

[7] = tested on: Jurkat J.gamma1 (mutant Jurkat cell line, no detectable PLCγ1 activity); assay: Cell viability assay; format: cell-based; details: for IC50: Homo sapiens, Jurkat, 72 h, read-out: Cellular IC50(μM) Jurkat J.gammal
[8] = tested on: tubulin acetylation (HDAC6 inhibition) in LNCaP cell line; assay: Western blot analysis of tubulin acetylation; format: cell-based; details: LNCaP cells, 4 hours, at IC50 concentration and at 20 μM
[9] = tested on: Jurkat J.gamma1; details: mutant Jurkat cell line without detectable PLCγ1 activity; cited from earlier work

Sequence of HDAC 1 (Q13547 whole entry): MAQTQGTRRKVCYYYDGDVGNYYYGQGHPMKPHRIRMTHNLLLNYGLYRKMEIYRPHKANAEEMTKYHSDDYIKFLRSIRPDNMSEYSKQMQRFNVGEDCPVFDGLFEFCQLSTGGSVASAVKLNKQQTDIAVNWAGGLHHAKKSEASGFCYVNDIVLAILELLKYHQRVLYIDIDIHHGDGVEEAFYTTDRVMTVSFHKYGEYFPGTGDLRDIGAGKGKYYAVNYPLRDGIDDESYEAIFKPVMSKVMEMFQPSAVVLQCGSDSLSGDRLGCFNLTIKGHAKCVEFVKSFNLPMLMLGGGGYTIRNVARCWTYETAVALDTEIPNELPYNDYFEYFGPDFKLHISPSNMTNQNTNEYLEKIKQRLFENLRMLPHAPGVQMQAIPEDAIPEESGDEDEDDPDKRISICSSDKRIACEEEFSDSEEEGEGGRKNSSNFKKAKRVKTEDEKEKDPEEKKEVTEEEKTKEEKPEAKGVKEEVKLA

Compound: Oc1ccc[nH]c1=S [Compound 3-HPT, 3-hydroxypyridin-2-thione]
LNCaP anti-proliferative activity (result in words) [1]: inactive
IC50 ([1]; Homo sapiens, LNCaP, read-out: Cellular IC50(μM) LNCaP): > 20 µM
HDAC 1 inhibition (result in words) [2]: no inhibition
Jurkat anti-proliferative activity (result in words) [3]: inactive
IC50 ([3]; Homo sapiens, Jurkat, 72 h, read-out: Cellular IC50(μM) Jurkat): > 20 µM
IC50 ([4]; Homo sapiens, DU-145, read-out: Cellular IC50(μM) DU-145): > 20 µM
DU-145 anti-proliferative activity (result in words) [4]: inactive

Compound: Cn1cccc(O)c1=O [Compound 5a, 1-Methyl-3-hydroxypyridin-2-one]
HDAC 8 inhibition (result in words) [5]: failed to inhibit
HDAC 6 inhibition (result in words) [6]: failed to inhibit
HDAC 1 inhibition (result in words) [2]: failed to inhibit

Compound: O=c1c(O)cccn1Cc1ccccc1 [Compound 5b, 1-Benzyl-3-hydroxypyridin-2-one]
HDAC 8 inhibition (result in words) [5]: failed to inhibit
HDAC 6 inhibition (result in words) [6]: failed to inhibit
HDAC 1 inhibition (result in words) [2]: failed to inhibit

Compound: O=c1c(O)cccn1Cc1ccc(-c2ccccc2)cc1 [Compound 5c, 1-(1,1'-Biphenylmethyl)-3-hydroxypyridin-2-one]
HDAC 8 inhibition (result in words) [5]: failed to inhibit
HDAC 6 inhibition (result in words) [6]: failed to inhibit
HDAC 1 inhibition (result in words) [2]: failed to inhibit

Compound: Oc1cccn(Cc2ccccc2)c1=S [Compound 7b, 1-Benzyl-3-hydroxypyridin-2-thione]
HDAC 1 inhibition (result in words) [2]: neither 7b nor 7c possess any measurable activity

Compound: Oc1cccn(Cc2ccc(-c3ccccc3)cc2)c1=S [Compound 7c, 1-(1,1'-Biphenylmethyl)-3-hydroxypyridin-2-thione]
HDAC 1 inhibition (result in words) [2]: neither 7b nor 7c possess any measurable activity

Compound: Cc1ccccc1-c1ccc(Cn2cccc(O)c2=S)cc1 [Compound 12f, 1-(2-Methyl-(1,1'-biphenylmethyl))-3-hydroxyoxypyridin-2-thione]
Jurkat J.gamma1 anti-proliferative activity (result in words) [7]: non-cytotoxic
IC50 [7]: > 20 µM
tubulin acetylation (Western blot) [8]: increase in tubulin acetylation
DU-145 anti-proliferative activity (result in words) [4]: weak activity

Compound: CN(C)c1ccc(-c2ccc(Cn3cccc(O)c3=S)cc2)cc1 [Compound 12g, 1-(4-Dimethylamino-(1,1'-biphenylmethyl))-3-hydroxyoxypyridin-2-thione]
HDAC 8 inhibition relative to 7c [5]: about 2 fold
HDAC 6 inhibition (result in words) [6]: loss of HDAC 6 inhibition
Jurkat J.gamma1 anti-proliferative activity (result in words) [7]: devoid of anti-proliferative activity
IC50 [7]: > 20 µM

Compound: Oc1cccn(Cc2cn(-c3ccccc3)nn2)c1=S [Compound 17a, 1-Phenyltriazolylmethyl-3-hydroxypyridin-2-thione]
HDAC 8 inhibition relative to 7c [5]: 2 to 3 fold
HDAC 6 inhibition (result in words) [6]: only marginally inhibitory
Jurkat J.gamma1 anti-proliferative activity (result in words) [7]: devoid of anti-proliferative activity
IC50 [7]: > 20 µM

Compound: COc1ccc(Cn2ccc3ccc(C(=O)NO)cc32)cc1 [PCI-34051]
apoptosis induction in Jurkat J.gamma1 [9]: lost its ability to induce apoptosis

Compound: O=C(CCCCCCC(=O)Nc1ccccc1)NO [SAHA, suberoylanilide hydroxamic acid, reference compound]
Jurkat J.gamma1 anti-proliferative activity (result in words) [7]: non-cytotoxic
tubulin acetylation (Western blot) [8]: concentration dependent tubulin hyperacetylation

Other lines, results leading:

HDAC 8 inhibition relative to 7c [5]: about 2 fold
Compound: N#Cc1ccc(-c2ccc(Cn3cccc(O)c3=S)cc2)cc1 [Compound 12a, 1-(4-Cyano-(1,1'-biphenylmethyl))-3-hydroxyoxypyridin-2-thione]

HDAC 6 inhibition (result in words) [6]: abrogation of HDAC 6 inhibition
Compound: N#Cc1cccc(-c2ccc(Cn3cccc(O)c3=S)cc2)c1 [Compound 12b, 1-(3-Cyano-(1,1'-biphenylmethyl))-3-hydroxyoxypyridin-2-thione]

HDAC 8 inhibition (result in words) [5]: loss of HDAC 8 inhibition
Compound: CN(C)c1ccc(-c2ccc(Cn3cccc(O)c3=S)cc2)cn1 [Compound 12h]

HDAC 8 inhibition (result in words) [5]: inactive
HDAC 6 inhibition (result in words) [6]: inactive
HDAC 1 inhibition (result in words) [2]: inactive
Compound: O=c1c(O)cccn1Cc1cn(-c2ccccc2)nn1 [Compound 15a, 1-Phenyltriazolylmethyl-3-hydroxypyridin-2-one]
